Measured values taken from ChEMBL document CHEMBL3045684, “Compatibility of traditional and novel acaricides with bumblebees (Bombus terrestris): a first laboratory assessment of toxicity and sublethal effects” (Pest Manag Sci, 2010).
Calls of active or inactive are those of the source. The rule behind the calls is not given here.

Assays:
[1] = tested on: Bombus terrestris; assay: Toxicity against worker Bombus terrestris (bumblebee) assessed as mortality at 240 mg a.i./l, po administered through pollen for 11 weeks measured everyday for 3 days followed by once a week for 11 weeks; assay type: functional
[2] = tested on: Bombus terrestris; assay: Toxicity against worker Bombus terrestris (bumblebee) assessed as mortality at 240 mg a.i./l, po administered through sugar water measured up to 1 week; assay type: functional, organism-based
[3] = tested on: Bombus terrestris; assay: Toxicity against worker Bombus terrestris (bumblebee) assessed as mortality at 240 mg a.i./l, po administered through sugar water for 11 weeks measured everyday for 3 days followed by once a week for 11 weeks; assay type: functional
[4] = tested on: Bombus terrestris; assay: Contact toxicity against worker Bombus terrestris (bumblebee) assessed as mortality at 240 mg a.i./l applied on the dorsal thorax for 11 weeks measured everyday for 3 days followed by once a week for 11 weeks; assay type: functional
[5] = tested on: Apis mellifera; assay: Toxicity against Apis mellifera (honey bee) assessed per bee; assay type: functional
[6] = tested on: Bombus terrestris; assay: Contact toxicity against Bombus terrestris (bumblebee) assessed per bee; assay type: functional
[7] = tested on: Apis mellifera; assay: Contact toxicity against Apis mellifera (honey bee) assessed per bee; assay type: functional
[8] = tested on: Bombus terrestris; assay: Toxicity against worker Bombus terrestris (bumblebee) assessed as reduction in reproduction at 240 mg a.i./l, po administered through sugar water for 11 weeks measured once a week for 11 weeks relative to control; assay type: functional, organism-based
[9] = tested on: Bombus terrestris; assay: Toxicity against worker Bombus terrestris (bumblebee) assessed as mortality at 240 mg a.i./l, po administered through pollen measured after 8 weeks; assay type: functional; conditions: 1344 h
[10] = tested on: Bombus terrestris; assay: Toxicity against worker Bombus terrestris (bumblebee) assessed as reduction in reproduction at 240 mg a.i./l, po administered through pollen for 11 weeks measured once a week for 11 weeks; assay type: functional, organism-based
[11] = tested on: Bombus terrestris; assay: Contact toxicity against worker Bombus terrestris (bumblebee) assessed as reduction in reproduction at 240 mg a.i./l applied on the dorsal thorax for 11 weeks measured once a week for 11 weeks relative to control; assay type: functional, organism-based
[12] = tested on: Bombus terrestris; assay: Toxicity against worker Bombus terrestris (bumblebee) assessed as mortality at 240 mg a.i./l, po administered through pollen measured after 5 weeks; assay type: functional; conditions: 840 h
[13] = tested on: Bombus terrestris; assay: Toxicity against worker Bombus terrestris (bumblebee) assessed as mortality at 55 mg a.i./l, po administered through pollen for 11 weeks measured everyday for 3 days followed by once a week for 11 weeks; assay type: functional, organism-based
[14] = tested on: Bombus terrestris; assay: Toxicity against worker Bombus terrestris (bumblebee) assessed as mortality at 55 mg a.i./l, po administered through sugar water measured after 9 to 11 weeks; assay type: functional, organism-based
[15] = tested on: Bombus terrestris; assay: Toxicity against worker Bombus terrestris (bumblebee) assessed as mortality at 55 mg a.i./l, po administered through sugar water for 11 weeks measured everyday for 3 days followed by once a week for 11 weeks; assay type: functional
[16] = tested on: Bombus terrestris; assay: Contact toxicity against worker Bombus terrestris (bumblebee) assessed as mortality at 55 mg a.i./l applied on the dorsal thorax for 11 weeks measured everyday for 3 days followed by once a week for 11 weeks; assay type: functional
[17] = tested on: Bombus terrestris; assay: Toxicity against po dosed worker Bombus terrestris (bumblebee) administered through sugar water for 11 weeks measured everyday for 3 days followed by once a week for 11 weeks; assay type: functional
[18] = tested on: Bombus terrestris; assay: Toxicity against worker Bombus terrestris (bumblebee) assessed as reduction in reproduction at 55 mg a.i./l, po administered through pollen for 11 weeks measured once a week for 11 weeks; assay type: functional; parameters: scale not given: the % may be the effect or the level left
[19] = tested on: Bombus terrestris; assay: Toxicity against worker Bombus terrestris (bumblebee) assessed as reduction in reproduction at 55 mg a.i./l, po administered through sugar water for 11 weeks measured once a week for 11 weeks relative to control; assay type: functional, organism-based
[20] = tested on: Bombus terrestris; assay: Contact toxicity against worker Bombus terrestris (bumblebee) assessed as reduction in reproduction at 55 mg a.i./l applied on the dorsal thorax for 11 weeks measured once a week for 11 weeks relative to control; assay type: functional, organism-based
[21] = tested on: Bombus terrestris; assay: Toxicity against worker Bombus terrestris (bumblebee) assessed as mortality at 50 mg a.i./l, po administered through sugar water measured after 4 to 6 weeks; assay type: functional, organism-based
[22] = tested on: Bombus terrestris; assay: Toxicity against worker Bombus terrestris (bumblebee) assessed as mortality at 50 mg a.i./l, po administered through sugar water for 11 weeks measured everyday for 3 days followed by once a week for 11 weeks; assay type: functional
[23] = tested on: Bombus terrestris; assay: Contact toxicity against worker Bombus terrestris (bumblebee) assessed as mortality at 50 mg a.i./l applied on the dorsal thorax for 11 weeks measured everyday for 3 days followed by once a week for 11 weeks; assay type: functional
[24] = tested on: Apis mellifera; assay: Toxicity against Apis mellifera (honey bee) assessed as adverse efffect at 250 mg/l; assay type: functional, organism-based
[25] = n-octanol-water distribution coefficient, log KOW of the compound; assay type: physicochemical; conditions: read-out: log KOW
[26] = tested on: Bombus terrestris; assay: Toxicity against worker Bombus terrestris (bumblebee) assessed as reduction in reproduction at 50 mg a.i./l, po administered through pollen for 11 weeks measured once a week for 11 weeks; assay type: functional; parameters: scale not given: the % may be the effect or the level left
[27] = tested on: Bombus terrestris; assay: Toxicity against worker Bombus terrestris (bumblebee) assessed as mortality at 50 mg a.i./l, po administered through pollen for 11 weeks measured everyday for 3 days followed by once a week for 11 weeks; assay type: functional, organism-based
[28] = tested on: Bombus terrestris; assay: Contact toxicity against worker Bombus terrestris (bumblebee) assessed as reduction in reproduction at 50 mg a.i./l applied on the dorsal thorax for 11 weeks measured once a week for 11 weeks relative to control; assay type: functional, organism-based
[29] = tested on: Bombus terrestris; assay: Toxicity against worker Bombus terrestris (bumblebee) assessed as reduction in reproduction at 50 mg a.i./l, po administered through sugar water for 11 weeks measured once a week for 11 weeks relative to control; assay type: functional; parameters: scale not given: the % may be the effect or the level left
[30] = tested on: Bombus terrestris; assay: Toxicity against worker Bombus terrestris (bumblebee) assessed as mortality at 125 mg a.i./l, po administered through pollen for 11 weeks measured everyday for 3 days followed by once a week for 11 weeks; assay type: functional, organism-based
[31] = tested on: Bombus terrestris; assay: Toxicity against worker Bombus terrestris (bumblebee) assessed as mortality at 125 mg a.i./l, po administered through sugar water for 11 weeks measured everyday for 3 days followed by once a week for 11 weeks; assay type: functional
[32] = tested on: Bombus terrestris; assay: Contact toxicity against worker Bombus terrestris (bumblebee) assessed as mortality at 125 mg a.i./l applied on the dorsal thorax for 11 weeks measured everyday for 3 days followed by once a week for 11 weeks; assay type: functional
[33] = tested on: Bombus terrestris; assay: Toxicity against worker Bombus terrestris (bumblebee) assessed as reduction in reproduction at 125 mg a.i./l, po administered through sugar water for 11 weeks measured once a week for 11 weeks relative to control; assay type: functional, organism-based
[34] = tested on: Bombus terrestris; assay: Toxicity against worker Bombus terrestris (bumblebee) assessed as reduction in reproduction at 125 mg a.i./l, po administered through pollen for 11 weeks measured once a week for 11 weeks; assay type: functional, organism-based
[35] = tested on: Bombus terrestris; assay: Contact toxicity against worker Bombus terrestris (bumblebee) assessed as reduction in reproduction at 125 mg a.i./l applied on the dorsal thorax for 11 weeks measured once a week for 11 weeks relative to control; assay type: functional, organism-based

For CCOCn1c(-c2ccc(Cl)cc2)c(C#N)c(Br)c1C(F)(F)F [CHLORFENAPYR], the mortality at 240 µg/mL [1] was 90%, the Activity [2] was “Active” and the mortality at 240 µg/mL [3] was 95%. The mortality at 240 µg/mL [4] was under 25%, the LD50 [5] was 0.2 µg and the LD50 [6] was over 100 µg. The LD50 [7] was under 1 µg, the Activity [8] was “Active” and the mortality at 240 µg/mL [9] was 90%. For the same compound, the Activity [10] was “Active”, the Activity [11] was “inactive” and the mortality at 240 µg/mL [12] was 50%.
In the case of CCOc1cc(C(C)(C)C)ccc1C1COC(c2c(F)cccc2F)=N1 (stereo unspecified) [ETOXAZOLE], the Activity [13] is reported as “inactive”, the Activity [14] is reported as “Active” and the mortality at 55 µg/mL [15] is reported as 95%. For the same compound, the mortality at 55 µg/mL [16] was under 25%, the LC50 [17] was 4.4 mgAi/L and the NOAEL [17] was 0.55 mgAi/L. The Activity [18] was 25%, the Activity [19] was “Active” and the Activity [20] was “Active”.
In the case of Cc1nn(C)c(Oc2ccccc2)c1/C=N/OCc1ccc(C(=O)OC(C)(C)C)cc1 [FENPYROXYMATE], the Activity [21] is reported as “Active”, the mortality at 50 µg/mL [22] is reported as 95% and the mortality at 50 µg/mL [23] is reported as under 25%. For the same compound, the Activity [24] was “inactive”, the logP [25] was 5.01 and the Activity [26] was 50%. For the same compound, the Activity [27] was “inactive”, the Activity [28] was “inactive” and the Activity [29] was 90%.
With O=C(NC(=O)c1c(F)cccc1F)Nc1ccc(CO/N=C(/c2ccc(Cl)cc2)C2CC2)cc1 [FLUCYCLOXURON] the Activity [30] was “inactive”, the mortality at 125 µg/mL [31] was 25% and the mortality at 125 µg/mL [32] was under 25%. For the same compound, the Activity [33] was “inactive”, the Activity [34] was “Active” and the Activity [35] was “Active”.
